Some results are limits rather than exact numbers.

The target in one experiment is human CB2 (Homo sapiens (Human), UniProt P34972). Kind of experiment: In vitro cannabinoid receptor activity assay (calcium mobilization, FLIPR) in CHO cells expressing human CB2 and Gαq16. It is filed as cell-based. Particulars: for EC50: CHO cells, hCB2, calcium fluorescence, read-out: hCB2 Ca EC50; for hCB2 Ca Span: percentage of the maximum CP55940 signal. On the procedure:
(§1) In vitro cannabinoid receptor activity assay. Chinese Hamster Ovary (CHO) cells stably expressing either human CB1 or CB2 cDNA and the promiscuous G-protein Gαq16 were transferred to each well of a black Costar 96-well optical bottom plate (Corning Corporation). Each plate was incubated at 37° C. for 24 hr to confluence. The culture media was removed from the plates and cells were subsequently loaded with a fluorescent calcium probe (Calcium 5 dye, Molecular Devices) at a final loading concentration of 2 μM in a HBSS-based buffer containing 20 mM HEPES, 1% BSA and 10 μM Probenecid (Sigma) in a total volume of 225 μl. Cells were incubated at 37° C. for 1 hr and then stimulated with various concentrations of a test agent using a FLIPR Tetra plate-reader, which automatically added the agonist at 10× concentration to each well after reading baseline values for ˜17 sec. Agonist-mediated change in fluorescence (488 nm excitation, 525 nm emission) was monitored in each well at 1 sec intervals for 60 sec and reported for each well. Data were analyzed using Prism software (GraphPad). Non-linear regression analysis was performed to fit data and obtain maximum response (Emax), effective concentration for 50% response (EC50), correlation coefficient (r2) and other parameters. All experiments were performed 3-6 times to ensure reproducibility.
(§2) Reference is made to the following reference, hereby incorporated by reference with regard to such assay, Seltzman, et al., Peripherally Selective Cannabinoid 1 Receptor (CB1R) Agonists for the Treatment of Neuropathic Pain, J Med Chem. 2016 Aug. 25; 59 (16):7525-43. doi: 10.1021/acs.jmedchem.6b00516. Epub 2016 Aug. 10.
(In general: Calcium flux is commonly read through the fluorescence of an indicator in the cells.)

In a further experiment the target is human CB1 (Homo sapiens (Human), UniProt P21554). Put plainly: In vitro cannabinoid receptor activity assay (calcium mobilization, FLIPR) in CHO cells expressing human CB1 and Gαq16. The class given is cell-based. Particulars: for EC50: CHO cells, hCB1, calcium fluorescence, read-out: hCB1 Ca EC50; for hCB1 Ca Span: percentage of the maximum CP55940 signal. How it is done:
as §1, §2

Consider `C[C@@H](NC(=O)c1nn(Cc2ccc(F)cc2)c2ccccc12)c1cccc(C(N)=O)c1` [Example 10, N-[(1R)-1-(3-Carbamoylphenyl)ethyl]-1-[(4-fluorophenyl)methyl]-1H-indazole-3-carboxamide], for which, on human CB2, the EC50 (in general, the concentration that produces a half-maximal response) came out at 660 nM and the “hCB2 Ca Span” value was 25%. Also, on human CB1, the EC50 came to 490 nM and the “hCB1 Ca Span” value is on record as 19%.
As for `CC(c1ccc(F)cc1)n1nc(C(=O)NC(C)(C)c2cccc(C(N)=O)c2)c2ccccc21` (stereo not drawn) [Example 14, N-[2-(3-Carbamoylphenyl)propan-2-yl]-1-[1-(4-fluorophenyl)ethyl]-1H-indazole-3-carboxamide], the concentration giving a half-maximal response (EC50) on human CB2 was greater than 10000 nM. Also, on human CB1, the 50% effective concentration (EC50) was 240 nM and the “hCB1 Ca Span” value is 76%.
For the molecule `CC(C)(NC(=O)c1nn(CC2CCC(F)(F)CC2)c2ccccc12)c1cccc(C(N)=O)c1` [Example 15, N-[2-(3-Carbamoylphenyl)propan-2-yl]-1-[(4,4-difluorocyclohexyl)methyl]-1H-indazole-3-carboxamide], at human CB2, the half-maximal effective concentration (EC50) is 51 nM and the “hCB2 Ca Span” value stood at 38%. Moreover, on human CB1, the EC50 was found to be 15 nM and the “hCB1 Ca Span” value came to 86%.
The corresponding values for `CC(C)(NC(=O)c1nn(CC2CCOCC2)c2ccccc12)c1cccc(C(N)=O)c1` [Example 16, N-[2-(3-Carbamoylphenyl)propan-2-yl]-1-(oxan-4-ylmethyl)-1H-indazole-3-carboxamide] are 63 nM, 57%, 140 nM and 92%.
Regarding `CCCCCn1nc(C(=O)NC(C)(C)c2cccc(C(N)=O)c2)c2ccccc21` [Example 17, N-[2-(3-Carbamoylphenyl)propan-2-yl]-1-pentyl-1H-indazole-3-carboxamide], on human CB2, the EC50 was 180 nM and the “hCB2 Ca Span” value is reported as 43%. For the same molecule, on human CB1, the EC50 came out at 220 nM and the “hCB1 Ca Span” value came to 24%.
In the case of `CC(C)(NC(=O)c1nn(CCCCCF)c2ccccc12)c1cccc(C(N)=O)c1` [Example 18, N-[2-(3-Carbamoylphenyl)propan-2-yl]-1-(5-fluoropentyl)-1H-indazole-3-carboxamide], at human CB2, the half-maximal effective concentration (EC50) came out at 84 nM and the “hCB2 Ca Span” value turned out to be 35%. On human CB1, the half-maximal effective concentration (EC50) was determined as 78 nM and the “hCB1 Ca Span” value was 27%.
Consider `CC(C)(NC(=O)c1nn(CCCCC(F)(F)F)c2ccccc12)c1cccc(C(N)=O)c1` [Example 19, N-[2-(3-Carbamoylphenyl)propan-2-yl]-1-(5,5,5-trifluoropentyl)-1H-indazole-3-carboxamide], for which, at human CB2, the EC50 came out at 480 nM and the “hCB2 Ca Span” value amounted to 39%. Also, on human CB1, the EC50 is 150 nM and the “hCB1 Ca Span” value came to 64%.
Consider `CC(C)(NC(=O)c1nn(Cc2ccc(F)cc2)c2ccccc12)c1cccc(NC(N)=O)c1` [Example 21, N-{2-[3-(Carbamoylamino)phenyl]propan-2-yl}-1-[(4-fluorophenyl)methyl]-1H-indazole-3-carboxamide], for which, at human CB2, the EC50 is 160 nM and the “hCB2 Ca Span” value is 34%. For the same molecule, at human CB1, the EC50 was found to be 1600 nM and the “hCB1 Ca Span” value is listed as 34%.
For the molecule `CC(C)(NC(=O)c1nn(CC2CCC(F)(F)CC2)c2ccccc12)c1cccc(NC(N)=O)c1` [Example 22, N-{2-[3-(Carbamoylamino)phenyl]propan-2-yl}-1-[(4,4-difluorocyclohexyl)methyl]-1H-indazole-3-carboxamide], on human CB2, the concentration for a half-maximal effect (EC50) stood at 58 nM and the “hCB2 Ca Span” value was 51%. In addition, at human CB1, the EC50 turned out to be 160 nM and the “hCB1 Ca Span” value is on record as 89%.
Take `CC(C)(NC(=O)c1nn(CC2CCOCC2)c2ccccc12)c1cccc(NC(N)=O)c1` [Example 23, N-{2-[3-(Carbamoylamino)phenyl]propan-2-yl}-1-(oxan-4-ylmethyl)-1H-indazole-3-carboxamide]: on human CB2, the EC50 was determined as 94 nM and the “hCB2 Ca Span” value was determined as 61%. Moreover, on human CB1, the concentration for a half-maximal effect (EC50) is 1200 nM and the “hCB1 Ca Span” value is given as 91%.
`CCCCCn1nc(C(=O)NC(C)(C)c2cccc(NC(N)=O)c2)c2ccccc21` [Example 24, N-{2-[3-(Carbamoylamino)phenyl]propan-2-yl}-1-pentyl-1H-indazole-3-carboxamide]: at human CB2, the EC50 came out at 320 nM and the “hCB2 Ca Span” value is listed as 47%. Besides, at human CB1, the 50% effective concentration (EC50) stood at 1300 nM and the “hCB1 Ca Span” value was determined as 52%.
With `CC(C)(NC(=O)c1nn(CCCCCF)c2ccccc12)c1cccc(NC(N)=O)c1` [Example 25, N-{2-[3-(carbamoylamino)phenyl]propan-2-yl}-1-(5-fluoropentyl)-1H-indazole-3-carboxamide], at human CB2, the half-maximal effective concentration (EC50) was 170 nM and the “hCB2 Ca Span” value was determined as 51%. In addition, on human CB1, the EC50 stood at 570 nM and the “hCB1 Ca Span” value is 65%.
Consider `CNC(=O)Nc1cccc(C(C)(C)NC(=O)c2nn(CC3CCC(F)(F)CC3)c3ccccc23)c1` [Example 26, 1-[(4,4-Difluorocyclohexyl)methyl]-N-(2-{3-[(methylcarbamoyl)amino]phenyl}propan-2-yl)-1H-indazole-3-carboxamide], for which, on human CB2, the EC50 was 34 nM and the “hCB2 Ca Span” value is on record as 61%. In addition, on human CB1, the EC50 came out at 16 nM and the “hCB1 Ca Span” value stood at 110%.
`CCCCCn1nc(C(=O)NC(C)(C)c2cccc(NC(=O)NC)c2)c2ccccc21` [Example 27, N-(2-{3-[(Methylcarbamoyl)amino]phenyl}propan-2-yl)-1-pentyl-1H-indazole-3-carboxamide]: at human CB2, the EC50 worked out at 170 nM and the “hCB2 Ca Span” value worked out at 55%. Besides, at human CB1, the concentration for a half-maximal effect (EC50) came out at 100 nM and the “hCB1 Ca Span” value was 100%.
Consider `CNC(=O)Nc1cccc(C(C)(C)NC(=O)c2nn(CCCCCF)c3ccccc23)c1` [Example 28, 1-(5-Fluoropentyl)-N-(2-{3-[(methylcarbamoyl)amino]phenyl}propan-2-yl)-1H-indazole-3-carboxamide], for which, at human CB2, the EC50 amounted to 65 nM and the “hCB2 Ca Span” value is 61%. Further, at human CB1, the concentration for a half-maximal effect (EC50) amounted to 30 nM and the “hCB1 Ca Span” value is 100%.
For `CC(C)(NC(=O)c1nn(Cc2ccc(F)cc2)c2ccccc12)C1CCCN(C(N)=O)C1` (stereo not drawn) [Example 29, N-[2-(1-Carbamoylpiperidin-3-yl)propan-2-yl]-1-[(4-fluorophenyl)methyl]-1H-indazole-3-carboxamide], at human CB2, the EC50 came to 46 nM and the “hCB2 Ca Span” value was 36%. Also, on human CB1, the EC50 amounted to 140 nM and the “hCB1 Ca Span” value worked out at 75%.
For `CC(C)(NC(=O)c1nn(Cc2ccc(F)cc2)c2ccccc12)C1CCN(C(N)=O)CC1` [Example 31, N-[2-(1-Carbamoylpiperidin-4-yl)propan-2-yl]-1-[(4-fluorophenyl)methyl]-1H-indazole-3-carboxamide], at human CB2, the EC50 worked out at 140 nM and the “hCB2 Ca Span” value stood at 57%. Also, on human CB1, the concentration for a half-maximal effect (EC50) stood at 1000 nM and the “hCB1 Ca Span” value worked out at 64%.
Consider `CC(C)(NC(=O)c1nn(Cc2ccc(F)cc2)c2ccccc12)C1CCN(CC(N)=O)CC1` [Example 32, N-{2-[1-(Carbamoylmethyl)piperidin-4-yl]propan-2-yl}-1-[(4-fluorophenyl)methyl]-1H-indazole-3-carboxamide], for which, at human CB2, the EC50 was determined as 29 nM and the “hCB2 Ca Span” value turned out to be 62%. Further, at human CB1, the EC50 is 40 nM and the “hCB1 Ca Span” value was determined as 110%.
The corresponding values for `CC(C)(NC(=O)c1cn(Cc2ccc(F)cc2)c2ccccc12)c1cccc(C(N)=O)c1` [Example 33, N-[2-(3-Carbamoylphenyl)propan-2-yl]-1-[(4-fluorophenyl)methyl]-1H-indole-3-carboxamide] are 160 nM, 30%, 870 nM and 25%.

Source of the values: patent publication US20230339863A1, “INDAZOLE DERIVATIVES AS CANNABINOID RECEPTOR PARTIAL AGONISTS” (RESEARCH TRIANGLE INSTITUTE, priority 2020, published 2023).
